In the test the target is JNK1 (Homo sapiens (Human), UniProt P45983). As to the kind of experiment: In Vitro JNK1 Assay (TR-FRET, phosphorylation of GST-c-Jun). In kind it is biochemical. Particulars: 0.2 nM active JNK1 kinase, 26.7 nM GST-c-Jun, 2 μM ATP, 30 min at room temperature. On the procedure:
Phosphorylation of GST-c-Jun protein (amino acid residues 1-79) was measured as JNK1 activity. […] The reaction buffer contained 50 mM HEPES, pH […], 1 mM DTT, 0.1 mM Na3VO4 and 0.2 mg/mL BSA. After 30 min. incubation at room temperature, the reaction was terminated by adding buffer containing 8 mM EDTA and a polyclonal anti-phospho-c-Jun antibody (Cell Signaling #9261L), followed by an additional incubation of 30 min. at room temperature. […] Time-resolved Fluorescence Resonance Energy Transfer (TR-FRET) signals were measured 1 hr. later on the EnVision reader (Perkin Elmer). Compound potency was assessed at 10 serially diluted concentrations. Percentage of inhibition at each concentration was determined to generate an IC50 value for each compound.
(TR-FRET usually uses a lanthanide donor and a delayed reading to cut background.)
Chain of JNK1 (P45983 whole entry, the tested form may be a part): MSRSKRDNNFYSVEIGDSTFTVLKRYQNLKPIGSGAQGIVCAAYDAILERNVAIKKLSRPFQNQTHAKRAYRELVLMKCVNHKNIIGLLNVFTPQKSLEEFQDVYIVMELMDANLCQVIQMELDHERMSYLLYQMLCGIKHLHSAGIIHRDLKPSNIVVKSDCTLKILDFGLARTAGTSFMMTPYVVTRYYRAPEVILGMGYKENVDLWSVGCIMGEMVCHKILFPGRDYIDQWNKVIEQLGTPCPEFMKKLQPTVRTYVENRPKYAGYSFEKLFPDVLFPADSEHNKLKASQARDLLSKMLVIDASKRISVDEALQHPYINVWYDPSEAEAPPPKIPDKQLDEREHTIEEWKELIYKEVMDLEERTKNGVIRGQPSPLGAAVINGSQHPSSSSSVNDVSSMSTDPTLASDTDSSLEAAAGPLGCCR
Consider “1-(4-Chloro-3-fluoro-phenyl)-3-(7-chloro-4-oxo-1-phenyl-1,4-dihydro-quinolin-3-yl-methyl)-urea [Example I-204]”, for which half-maximal inhibition (IC50) required 1100 nM. For the molecule `COC(=O)c1ccc(C(=O)NCc2c(-c3ncco3)n(-c3ccccc3)c3cc(Cl)ccc3c2=O)cn1` [Example I-5, 5-[(7-Chloro-2-oxazol-2-yl-4-oxo-1-phenyl-1,4-dihydro-quinolin-3-ylmethyl)-carbamoyl]-pyridine-2-carboxylic acid methyl ester], the IC50 (usually the point on the concentration scale where inhibition reaches its midpoint) was 25 nM. To `O=C(NCc1c(-c2ncco2)n(-c2ccccc2)c2cc(Cl)ccc2c1=O)c1ccc(Cl)nc1` [Example I-6, 6-Chloro-N-(7-chloro-2-oxazol-2-yl-4-oxo-1-phenyl-1,4-dihydro-quinolin-3-ylmethyl)-nicotinamide] belongs 29 nM; to `CN(C)C(=O)c1c(CNC(=O)c2ccc(N3CCOCC3)cc2)c(=O)c2ccc(Cl)cc2n1-c1ccccc1` [Example I-17, 7-Chloro-3-[(4-morpholin-4-yl-benzoylamino)-methyl]-4-oxo-1-phenyl-1,4-dihydro-quinoline-2-carboxylic acid dimethylamide], 140 nM; to `CN(C)C(=O)c1c(CNC(=O)c2ccc(-c3cnco3)cc2)c(=O)c2ccc(Cl)cc2n1-c1ccccc1` [Example I-18, 7-Chloro-3-[(4-oxazol-5-yl-benzoylamino)-methyl]-4-oxo-1-phenyl-1,4-dihydro-quinoline-2-carboxylic acid dimethylamide], 150 nM.

Regarding `CN(C)C(=O)c1c(CNC(=O)c2ccc(F)cc2)c(=O)c2ccc(Cl)cc2n1-c1ccccc1` [Example I-20, 7-Chloro-3-[(4-fluoro-benzoylamino)-methyl]-4-oxo-1-phenyl-1,4-di-hydro-quinoline-2-carboxylic acid dimethylamide], the IC50 was 240 nM. The same measure for `CN(C)C(=O)c1c(CNC(=O)c2ccc3c(c2)OCCO3)c(=O)c2ccc(Cl)cc2n1-c1ccccc1` [Example I-21, 7-Chloro-3-{[(2,3-dihydro-benzo[1,4]dioxine-6-carbonyl)-amino]-methyl}-4-oxo-1-phenyl-1,4-dihydro-quinoline-2-carboxylic acid dimethylamide]: 460 nM; for `O=C(NCc1cn(-c2ccccc2)c2cc(Cl)ccc2c1=O)c1ccn(Cc2cccc(Cl)c2)c(=O)c1` [Example I-44, 1-(3-Chloro-benzyl)-2-oxo-1,2-dihydro-pyridine-4-carboxylic acid (7-chloro-4-oxo-1-phenyl-1,4-dihydro-quinolin-3-ylmethyl)-amide]: 110 nM; for `Cn1cnc2cc(C(=O)NCc3cn(-c4ccccc4)c4cc(Cl)ccc4c3=O)cnc21` [Example I-45, 3-Methyl-3H-imidazo[4,5-b]pyridine-6-carboxylic acid (7-chloro-4-oxo-1-phenyl-1,4-dihydro-quinolin-3-ylmethyl)-amide]: 110 nM.

In the case of `O=C(NCc1cn(-c2ccccc2)c2cc(Cl)ccc2c1=O)c1ccc2cc[nH]c2c1` [Example I-46, 1H-Indole-6-carboxylic acid (7-chloro-4-oxo-1-phenyl-1,4-dihydro-quinolin-3-ylmethyl)-amide], the IC50 was found to be 140 nM.

Molecule `O=C(NCc1cn(-c2ccccc2)c2cc(Cl)ccc2c1=O)c1ccc(-c2cnco2)cc1` [Example I-47, N-(7-Chloro-4-oxo-1-phenyl-1,4-dihydro-quinolin-3-ylmethyl)-4-oxazol-5-yl-benzamide] yielded an IC50 of 170 nM. To `COc1ccccc1Cn1ccc(C(=O)NCc2cn(-c3ccccc3)c3cc(Cl)ccc3c2=O)cc1=O` [Example I-48, 1-(2-Methoxy-benzyl)-2-oxo-1,2-dihydro-pyridine-4-carboxylic acid (7-chloro-4-oxo-1-phenyl-1,4-dihydro-quinolin-3-ylmethyl)-amide] belongs 180 nM; to `O=C(NCc1cn(-c2ccccc2)c2cc(Cl)ccc2c1=O)c1cnc2nc[nH]c2c1` [Example I-49, 1H-Imidazo[4,5-b]pyridine-6-carboxylic acid (7-chloro-4-oxo-1-phenyl-1,4-dihydro-quinolin-3-ylmethyl)-amide], 230 nM. The same measure for `NC(=O)c1ccc(C(=O)NCc2cn(-c3ccccc3)c3cc(Cl)ccc3c2=O)cc1` [Example I-50, N-(7-Chloro-4-oxo-1-phenyl-1,4-dihydro-quinolin-3-ylmethyl)-terephthal-amide]: 300 nM; for `CC(C)(C)OC(=O)N1CCC(C(=O)NCc2cn(-c3ccccc3)c3cc(Cl)ccc3c2=O)C1` (stereo not drawn) [Example I-51, 3-[(7-Chloro-4-oxo-1-phenyl-1,4-dihydro-quinolin-3-ylmethyl)-carbamoyl]-pyrrolidine-1-carboxylic acid tert-butyl ester]: 330 nM.

In turn, `O=C(NCc1cn(-c2ccccc2)c2cc(Cl)ccc2c1=O)c1ccc(=O)n(Cc2ccccc2)c1` [Example I-52, 1-Benzyl-6-oxo-1,6-dihydro-pyridine-3-carboxylic acid (7-chloro-4-oxo-1-phenyl-1,4-dihydro-quinolin-3-ylmethyl)-amide] gave an IC50 of 380 nM.

For the molecule `Cn1cc(C(=O)NCc2cn(-c3ccccc3)c3cc(Cl)ccc3c2=O)nn1` [Example I-53, 1-Methyl-1H-[1,2,3]triazole-4-carboxylic acid (7-chloro-4-oxo-1-phenyl-1,4-dihydro-quinolin-3-ylmethyl)-amide], half-maximal inhibition (IC50) required 560 nM. As to `Cn1ccc(C(=O)NCc2cn(-c3ccccc3)c3cc(Cl)ccc3c2=O)cc1=O` [Example I-54, 1-Methyl-2-oxo-1,2-dihydro-pyridine-4-carboxylic acid (7-chloro-4-oxo-1-phenyl-1,4-dihydro-quinolin-3-ylmethyl)-amide], the IC50 is 670 nM. To `O=C(NCc1cn(-c2ccccc2)c2cc(Cl)ccc2c1=O)c1cn(Cc2ccccc2)nn1` [Example I-55, 1-Benzyl-1H-[1,2,3]triazole-4-carboxylic acid (7-chloro-4-oxo-1-phenyl-1,4-dihydro-quinolin-3-ylmethyl)-amide] belongs 700 nM. To `O=C(NCc1cn(-c2ccccc2)c2cc(Cl)ccc2c1=O)c1cnc(N2CCOCC2)nc1` [Example I-56, 2-Morpholin-4-yl-pyrimidine-5-carboxylic acid (7-chloro-4-oxo-1-phenyl-1,4-dihydro-quinolin-3-ylmethyl)-amide] belongs 190 nM; to `O=C(NCc1cn(-c2ccccc2)c2cc(Cl)ccc2c1=O)c1cc(F)cc(F)c1` [Example I-58, N-(7-Chloro-4-oxo-1-phenyl-1,4-dihydro-quinolin-3-ylmethyl)-3,5-difluoro-benzamide], 630 nM.

`O=C(NCc1cn(-c2ccccc2)c2cc(Cl)ccc2c1=O)c1cccc(F)c1F` [Example I-59, N-(7-Chloro-4-oxo-1-phenyl-1,4-dihydro-quinolin-3-ylmethyl)-2,3-difluoro-benzamide] had an IC50 of 1700 nM.

`O=C(NCc1cn(-c2ccccc2)c2cc(Cl)ccc2c1=O)c1cc(F)ccc1F` [Example I-60, N-(7-Chloro-4-oxo-1-phenyl-1,4-dihydro-quinolin-3-ylmethyl)-2,5-difluoro-benzamide] gave an IC50 of 1900 nM. As to `O=C(NCc1cn(-c2ccccc2)c2cc(Cl)ccc2c1=O)c1ccc(Cl)nc1` [Example I-61, 6-Chloro-N-(7-chloro-4-oxo-1-phenyl-1,4-dihydro-quinolin-3-ylmethyl)-nicotinamide], half-maximal inhibition (IC50) required 430 nM.
